PubChem BioAssay (NCI)
Values joined by “and” are separate entries in the source; they are usually repeats but may differ in a detail not shown here. Identical values can stand only once.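 Step 1: Grow cells in 96-well plates. Step 2: Expose to compound for 48 hours at 5 concentrations. Step 3: Interpolate endpoints linearly; if unreached, use highest concentration. Abbreviation: GI50, concentration required for 50% inhibition of growth. TGI marks complete inhibition of growth.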

Experiments:
Experiment in all cases: DTP human tumour cell line panel, 48 h
A498 renal = system: A498 renal
HOP-62 NSCLC = system: HOP-62 NSCLC
HT29 colon = system: HT29 colon
M14 melanoma = system: M14 melanoma
SR leukemia = system: SR leukemia
SW-620 colon = system: SW-620 colon
U251 CNS = system: U251 CNS
UO-31 renal = system: UO-31 renal
BT-549 breast = system: BT-549 breast
MDA-MB-231 breast = system: MDA-MB-231 breast

SMILES | TGI (A498 renal) | TGI (HOP-62 NSCLC) | TGI (HT29 colon) | TGI (M14 melanoma) | TGI (SR leukemia) | TGI (SW-620 colon) | TGI (U251 CNS) | TGI (UO-31 renal) | GI50 (A498 renal) | GI50 (BT-549 breast) | TGI (BT-549 breast) | GI50 (HOP-62 NSCLC) | GI50 (HT29 colon) | GI50 (M14 melanoma) | GI50 (MDA-MB-231 breast) | TGI (MDA-MB-231 breast) | GI50 (SW-620 colon) | GI50 (UO-31 renal) | GI50 (SR leukemia) | GI50 (U251 CNS)
C/C(=N\N(C)C)c1sc(-n2nc(-c3ccccc3)cc2-c2ccccc2)nc1C | > 100 µM | > 100 µM | > 100 µM | > 100 µM | > 100 µM | > 100 µM | > 100 µM | > 100 µM | – | – | – | – | – | – | – | – | – | – | – | –
C/C(=N\NC(=S)Nc1ccc(C(=O)O)cc1)c1ccccn1 | 50.7 µM | > 100 µM | > 100 µM | 28.7 µM | 56.3 µM | 39.1 µM | 58.3 µM | 39.8 µM | – | – | – | – | – | – | – | – | – | – | – | –
Cn1ncc2cc3c(Nc4ccc(Cl)cc4)cccc3nc21 | – | 53 µM | – | 46.3 µM | – | 48.8 µM | – | 88.7 µM | – | – | – | – | – | – | – | – | – | – | – | –
COc1ccc(-c2oc3cc(O)c(OC)c(O)c3c(=O)c2OC2OC(CO)C(O)C(O)C2O)cc1 (stereo not given) | – | – | > 100 µM | > 100 µM | – | > 100 µM | > 100 µM | > 100 µM | – | – | – | – | – | – | – | – | – | – | – | –
S=c1[nH]nc(COc2ccc(Cl)cc2)o1 | > 100 µM | > 100 µM | > 100 µM | > 100 µM | – | 29.8 µM | > 100 µM | > 100 µM | – | – | – | – | – | – | – | – | – | – | – | –
Cc1ccc(-c2c(C#N)c(N)nc(N3CCOCC3)c2C#N)o1 | 54.4 µM | > 100 µM | > 100 µM | > 100 µM | – | > 100 µM | – | 84 µM | 15.5 µM | 62.9 µM | > 100 µM | 26.4 µM | 30.1 µM | 87.9 µM | 21 µM | 80.7 µM | > 100 µM | 21.2 µM | – | –
CCOP(=O)(OCC)C1C(=O)O[C@H]2CCCC[C@@H]12 (stereo not given in full) | > 100 µM | > 100 µM | > 100 µM | > 100 µM | – | > 100 µM | > 100 µM | – | – | – | – | – | – | – | – | – | – | – | – | –
CCOC(=O)CCC(NC(=O)c1ccc(N=Cc2nc3cc(C(F)(F)F)ccc3nc2-c2ccccc2)cc1)C(=O)OCC (stereo not given) | 75 µM | 50 µM and 40.6 µM | > 100 µM | 50 µM and > 100 µM | > 100 µM | > 100 µM | 19.4 µM and 57.1 µM | > 100 µM | – | – | – | 16.3 µM | > 100 µM | > 100 µM | – | – | > 100 µM | > 100 µM | > 100 µM | 9.75 µM
CCOC(=O)C1C=C2O[C@@H]3OC4(CCCCC4)O[C@@H]3C2[C@H]2C(=O)C=CC(=O)[C@@]12C(=O)OC (stereo not given in full) | 32.6 µM | 36.3 µM | 19.4 µM | 30.1 µM | 6.71 µM | 28.6 µM | 21.5 µM | 29.9 µM | – | – | – | – | – | – | – | – | – | – | – | –
CCOC(=O)/C(C1=N[C@H](C(=O)OCC)CS1)=C(\C)O | – | > 100 µM | > 100 µM | > 100 µM | > 100 µM | > 100 µM | > 100 µM | > 100 µM | – | – | – | – | – | – | – | – | – | – | – | –
CCCCN(CCCC)C(=O)C(=O)CC(=O)c1ccc(Br)cc1 | > 100 µM | > 100 µM | > 100 µM | > 100 µM | – | > 100 µM | > 100 µM | > 100 µM | – | – | – | – | – | – | – | – | – | – | – | –
CC(=O)c1ccc(Nc2cc(-n3ccnc3)nc3ccccc23)cc1 | – | 29.4 µM | > 100 µM | 52 µM | – | > 100 µM | > 100 µM | > 100 µM | – | > 100 µM | > 100 µM | 4.26 µM | 60.7 µM | 8.15 µM | 3.64 µM | 18.1 µM | 49.1 µM | 66.7 µM | – | 32.6 µM
O=C(Nc1ccncc1)C(=O)c1cn(S(=O)(=O)c2ccc(Br)cc2)c2ccccc12 | > 100 µM | 38.7 µM | > 100 µM | > 100 µM | – | > 100 µM | > 100 µM | > 100 µM | 3.17 µM | 11.8 µM | > 100 µM | 3.67 µM | 2.82 µM | 5.74 µM | 10.2 µM | 83 µM | 4.18 µM | > 100 µM | – | 6.41 µM
Cc1cc(Br)cc(C)c1NC(=O)C(=O)CC(=O)c1sc(-n2nc(-c3ccccc3)cc2-c2ccccc2)nc1C | > 100 µM | > 100 µM | > 100 µM | > 100 µM | > 100 µM | > 100 µM | > 100 µM | > 100 µM | – | – | – | – | – | – | – | – | – | – | – | –
CC(=O)O[C@H]1C(=O)[C@@]2(C)C([C@H](OC(=O)c3ccccc3)[C@]3(O)C[C@H](OC(=O)[C@H](O)[C@H](NC(=O)c4ccccc4)c4ccc(Cl)cc4)C(C)=C1C3(C)C)C1(OC(C)=O)CO[C@@H]1C[C@@H]2O (stereo not given in full) | 30.4 µM | 26.5 µM | – | 0.027 µM | – | 18.3 µM | – | 11 µM | 0.2 µM | – | – | 0.0321 µM | – | – | – | – | – | 1.97 µM | – | –
NNC(=O)/C(=C/c1cccc([N+](=O)[O-])c1)NC(=O)c1ccccc1 | > 100 µM | > 100 µM | > 100 µM | > 100 µM | > 100 µM | > 100 µM | > 100 µM | > 100 µM | – | – | – | – | – | – | – | – | – | – | – | –
Cn1nc(-c2ccccc2NC(=O)C(F)(F)F)c(=O)n(C)c1=S | – | > 100 µM | 53.8 µM | 45 µM | 53.7 µM | > 100 µM | > 100 µM | 74.4 µM | – | – | – | – | – | – | – | – | – | – | – | –
CCOC(=O)Cc1c(Cc2[nH]c(C(=O)OCc3ccccc3)c(CC(=O)OCC)c2CC(=O)OCC)[nH]c(C(=O)OCc2ccccc2)c1CC(=O)OCC | > 100 µM | > 100 µM | > 100 µM | > 100 µM | > 100 µM | > 100 µM | > 100 µM | > 100 µM | – | – | – | – | – | – | – | – | – | – | – | –
CC(=O)[CH-]C(=O)c1ccccc1.CC(=O)[CH-]C(=O)c1ccccc1.CCN(CC)CC[O-].CCN(CC)CC[O-].Cl.[Ti+4] | 72.5 µM | > 100 µM | 59.6 µM | 45.9 µM | – | > 100 µM | > 100 µM | 74.8 µM | 26.2 µM | – | – | 37.4 µM | 24 µM | 22.5 µM | – | – | 45.9 µM | 21.1 µM | – | 25.2 µM
C=C(c1ccccc1N)[C@@]1(O)C[C@H](/C(=C\C)CO)C[C@@H]1NCc1ccccc1 | > 100 µM | > 100 µM | 32.7 µM | 28.5 µM | – | 50 µM | 33.3 µM | 42.3 µM | – | – | – | – | – | – | – | – | – | – | – | –
CC(=O)Oc1c(C)n(CCCl)ccc1=O | > 100 µM | > 100 µM | > 100 µM | > 100 µM | > 100 µM | – | > 100 µM | > 100 µM | – | – | – | – | – | – | – | – | – | – | – | –
CC(Cl)(/C=C/Cl)C(Cl)/C=C/C(Cl)(CCl)CBr (stereo not given) | 18.4 µM | 42.8 µM | 4.66 µM | 7.89 µM | 2.07 µM | 8 µM | 8.37 µM | 28.6 µM | – | – | – | – | – | – | – | – | – | – | – | –
